Assay results as given in paper PMC5731253 (Journal of medicinal chemistry, 2017).
“Also recorded” adds a separate entry of the source.

Tests used:
[1] = biological target: carboxypeptidase Y (Saccharomyces cerevisiae, UniProt P00729); test: Carboxypeptidase Y-mediated cleavage monitored by 31P-NMR; format: in vitro ADME; settings: for time to complete conversion of the starting material: carboxypeptidase Y; for conversion of the starting material by carboxypeptidase Y: result in words
[2] = test system: human embryonic lung (HEL) fibroblasts; test: Minimum cytotoxic concentration, HEL cell morphology
[3] = test system: HSV-1 (KOS); test: Anti-HSV-1; format: cell-based, herpes simplex virus type 1; settings: HEL cell cultures
[4] = test system: HSV-2 (G); test: Anti-HSV-2; format: cell-based, herpes simplex virus type 2; settings: HEL cell cultures
[5] = test system: thymidine kinase-deficient (TK−) HSV-1 KOS strain; format: cell-based, herpes simplex virus type 1; settings: HEL cell cultures; for Antiviral Activity EC50 HSV-1 TK (KOS): TK-deficient, ACV-resistant strain

Chain of carboxypeptidase Y (P00729 112-532): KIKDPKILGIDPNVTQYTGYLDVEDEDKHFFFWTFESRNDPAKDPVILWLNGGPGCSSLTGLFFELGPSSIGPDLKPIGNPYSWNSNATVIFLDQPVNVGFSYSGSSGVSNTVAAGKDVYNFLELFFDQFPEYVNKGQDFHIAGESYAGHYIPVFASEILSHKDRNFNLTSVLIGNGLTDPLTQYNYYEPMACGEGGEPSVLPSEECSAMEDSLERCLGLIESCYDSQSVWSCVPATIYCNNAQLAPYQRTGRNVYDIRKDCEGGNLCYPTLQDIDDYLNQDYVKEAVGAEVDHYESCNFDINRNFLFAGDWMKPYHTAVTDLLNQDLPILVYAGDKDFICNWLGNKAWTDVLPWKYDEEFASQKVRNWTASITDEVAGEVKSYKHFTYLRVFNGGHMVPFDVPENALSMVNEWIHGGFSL

Compound	Cytotoxicity MCC ([2]; Table 4 (HCMV/VZV assays)) [µM]	Antiviral Activity EC50 HSV-1 TK (KOS) [5]	Cytotoxicity MCC ([2]; Table 3 (HSV assays)) [µM]	other results
C[C@H](NP(=O)(OCC(CO)CCn1cnc2c(Cl)nc(N)nc21)Oc1ccccc1)C(=O)OCc1ccccc1 (mixture of isomers) [Compound 60]	>100			time to complete conversion of the starting material [1]: ≤ 0.5 h; conversion of the starting material by carboxypeptidase Y [1]: completely converted and full
Nc1nc(O)c2ncn(CSC(CO)CO)c2n1 [Compound 3]				Antiviral Activity EC50 HSV-1 (KOS) [3]: sub-micromolar activity; Antiviral Activity EC50 HSV-2 (G) [4]: sub-micromolar activity
CC(C)OC(=O)[C@H](C)NP(=O)(OCC(COP(=O)(N[C@@H](C)C(=O)OC(C)C)Oc1cccc2ccccc12)OCn1cnc2c(=O)[nH]c(N)nc21)Oc1cccc2ccccc12 (stereo partly drawn) [Compound 15, 2-amino-9-{[(1,3-dihydroxypropan-2-yl)oxy]methyl}-6,9-dihydro-1H-purin-6-one-[1-naphthyl(isopropoxy-L-alaninyl)] diphosphate]	>100	marginal activity	≥100	
CC(C)OC(=O)[C@H](C)NP(=O)(OCC(CO)OCn1cnc2c(=O)[nH]c(N)nc21)Oc1cccc2ccccc12 (stereo partly drawn) [Compound 16, 2-amino-9-{[(1,3-dihydroxypropan-2-yl)oxy]methyl}-6,9-dihydro-1H-purin-6-one-[1-naphthyl(isopropoxy-L-alaninyl)]phosphate]	>100	marginal activity	>100	conversion of the starting material by carboxypeptidase Y [1]: slow and incomplete conversion; also recorded: partial
C[C@H](NP(=O)(OCC(COP(=O)(N[C@@H](C)C(=O)OCc1ccccc1)Oc1ccccc1)OCn1cnc2c(=O)[nH]c(N)nc21)Oc1ccccc1)C(=O)OCc1ccccc1 (stereo partly drawn) [Compound 17]	>100	considerable activity	>100	
C[C@H](NP(=O)(OCC(COP(=O)(N[C@@H](C)C(=O)OCc1ccccc1)Oc1cccc2ccccc12)OCn1cnc2c(=O)[nH]c(N)nc21)Oc1cccc2ccccc12)C(=O)OCc1ccccc1 (stereo partly drawn) [Compound 18]	>50			fold difference in EC50 values between HSV-1 TK+ and TK− strains [5]: < 2.5 fold
CC(C)(NP(=O)(OCC(COP(=O)(NC(C)(C)C(=O)OCc1ccccc1)Oc1ccccc1)OCn1cnc2c(=O)[nH]c(N)nc21)Oc1ccccc1)C(=O)OCc1ccccc1 (stereo not drawn) [Compound 19]				fold difference in EC50 values between HSV-1 TK+ and TK− strains [5]: < 2.5 fold
CC(C)(NP(=O)(OCC(COP(=O)(NC(C)(C)C(=O)OCc1ccccc1)Oc1cccc2ccccc12)OCn1cnc2c(=O)[nH]c(N)nc21)Oc1cccc2ccccc12)C(=O)OCc1ccccc1 (stereo not drawn) [Compound 21]		considerable activity	>100	
CC(C)(NP(=O)(OCC(CO)OCn1cnc2c(=O)[nH]c(N)nc21)Oc1cccc2ccccc12)C(=O)OCc1ccccc1 (stereo not drawn) [Compound 22]	>50		>100	fold difference in EC50 values between HSV-1 TK+ and TK− strains [5]: < 2.5 fold
C[C@H](NP(=O)(OCC(CO)OCn1cnc2c(=O)[nH]c(N)nc21)Oc1cccc2ccccc12)C(=O)OCc1ccccc1 (stereo partly drawn) [Compound 28]	>100	considerable activity	>100	
C[C@H](NP(=O)(OCC(CCn1cnc2c(=O)[nH]c(/N=C/N(C)C)nc21)COP(=O)(N[C@@H](C)C(=O)OCc1ccccc1)Oc1cccc2ccccc12)Oc1cccc2ccccc12)C(=O)OCc1ccccc1 (stereo partly drawn) [Compound 31]		inactive		Antiviral Activity EC50 HSV-1 (KOS) [3]: inactive; Antiviral Activity EC50 HSV-2 (G) [4]: inactive
CC(C)(NP(=O)(OCC(CO)CCn1cnc2c(=O)[nH]c(N)nc21)Oc1ccccc1)C(=O)OCc1ccccc1 (stereo not drawn) [Compound 39]	>50		>100	
CC(C)(NP(=O)(OCC(CO)CCn1cnc2c(=O)[nH]c(N)nc21)Oc1cccc2ccccc12)C(=O)OCc1ccccc1 (stereo not drawn) [Compound 41]	>50		>100	
C[C@H](NP(=O)(OCC(CO)CCn1cnc2c(=O)[nH]c(N)nc21)Oc1cccc2ccccc12)C(=O)OCc1ccccc1 (stereo partly drawn) [Compound 45]	>50		>100	conversion of the starting material by carboxypeptidase Y [1]: slow and incomplete conversion; also recorded: partial
COc1nc(N)nc2c1ncn2CCC(COP(=O)(N[C@@H](C)C(=O)OCc1ccccc1)Oc1ccccc1)COP(=O)(N[C@@H](C)C(=O)OCc1ccccc1)Oc1ccccc1 (stereo partly drawn) [Compound 61]	>50			
COc1nc(N)nc2c1ncn2CCC(COP(=O)(N[C@@H](C)C(=O)OCC(C)(C)C)Oc1cccc2ccccc12)COP(=O)(N[C@@H](C)C(=O)OCC(C)(C)C)Oc1cccc2ccccc12 (stereo partly drawn) [Compound 62]	≥20		≥100	
CCCOC(=O)[C@H](C)NP(=O)(OCC(CCn1cnc2c(OC)nc(N)nc21)COP(=O)(N[C@@H](C)C(=O)OCCC)Oc1cccc2ccccc12)Oc1cccc2ccccc12 (stereo partly drawn) [Compound 63]	≥50		≥100	conversion of the starting material by carboxypeptidase Y [1]: fast conversion; also recorded: partial
CCC(C)(C)COC(=O)[C@H](C)NP(=O)(OCC(CCn1cnc2c(OC)nc(N)nc21)COP(=O)(N[C@@H](C)C(=O)OCC(C)(C)CC)Oc1cccc2ccccc12)Oc1cccc2ccccc12 (stereo partly drawn) [Compound 64]			≥100	
COc1nc(N)nc2c1ncn2CCC(CO)COP(=O)(N[C@@H](C)C(=O)OCc1ccccc1)Oc1cccc2ccccc12 (stereo partly drawn) [Compound 67]	>50	retention of some activity		
COc1nc(N)nc2c1ncn2CCC(CO)COP(=O)(N[C@@H](C)C(=O)OCC(C)(C)C)Oc1cccc2ccccc12 (stereo partly drawn) [Compound 68]	>50	retention of some activity		
CCCOC(=O)[C@H](C)NP(=O)(OCC(CO)CCn1cnc2c(OC)nc(N)nc21)Oc1cccc2ccccc12 (stereo partly drawn) [Compound 69]	≥50		100	time to complete conversion of the starting material [1]: ≤ 2 h; conversion of the starting material by carboxypeptidase Y [1]: complete conversion and full
COC(=O)[C@H](C)NP(=O)(OCC(CO)CCn1cnc2c(OC)nc(N)nc21)Oc1cccc2ccccc12 (stereo partly drawn) [Compound 70]	≥50		≥100	
CCC(C)(C)COC(=O)[C@H](C)NP(=O)(OCC(CO)CCn1cnc2c(OC)nc(N)nc21)Oc1cccc2ccccc12 (stereo partly drawn) [Compound 71]	≥50		100	
COc1nc(N)nc2c1ncn2CCC(CO)COP(=O)(N[C@@H](C)C(=O)OC1CCCCC1)Oc1cccc2ccccc12 (stereo partly drawn) [Compound 72]		retention of some activity	≥100	
C[C@H](NP1(=O)OCC(OCn2cnc3c(Cl)nc(N)nc32)CO1)C(=O)OCc1ccccc1 (stereo partly drawn) [Compound 75]				time to complete conversion of the starting material [1]: ≤ 1 h; conversion of the starting material by carboxypeptidase Y [1]: completely metabolised
CC(=O)OCC(COP(=O)(N[C@@H](C)C(=O)OCc1ccccc1)Oc1ccccc1)OCn1cnc2c(Cl)nc(N)nc21 (stereo partly drawn) [Compound 77]				conversion of the starting material by carboxypeptidase Y [1]: quickly metabolised
